Residues, ends and D or L forms follow the SMILES beside them. No end group written: not given here.
What was measured:
Format in all cases: cell-based
[1] = biological target: T1, TLR2 (Mus musculus, UniProt Q9QUN7); experiment: Inhibition of TLR2 signaling in thioglycollate-elicited mouse macrophages (effective concentration, TLR2 agonists P3C/P2C); settings: for IL-1β expression induced by TLR2 agonists: P2C and P3C (FIG. 16A, B); for Effective conc.: TLR2 pathway, thioglycollate-elicited mouse macrophages
T1 construct: Primary peritoneal macrophages were obtained by peritoneal lavage; endogenous in cells; host or cells: thioglycollate-elicited mouse peritoneal macrophages
T1 sequence (Q9QUN7 25-784): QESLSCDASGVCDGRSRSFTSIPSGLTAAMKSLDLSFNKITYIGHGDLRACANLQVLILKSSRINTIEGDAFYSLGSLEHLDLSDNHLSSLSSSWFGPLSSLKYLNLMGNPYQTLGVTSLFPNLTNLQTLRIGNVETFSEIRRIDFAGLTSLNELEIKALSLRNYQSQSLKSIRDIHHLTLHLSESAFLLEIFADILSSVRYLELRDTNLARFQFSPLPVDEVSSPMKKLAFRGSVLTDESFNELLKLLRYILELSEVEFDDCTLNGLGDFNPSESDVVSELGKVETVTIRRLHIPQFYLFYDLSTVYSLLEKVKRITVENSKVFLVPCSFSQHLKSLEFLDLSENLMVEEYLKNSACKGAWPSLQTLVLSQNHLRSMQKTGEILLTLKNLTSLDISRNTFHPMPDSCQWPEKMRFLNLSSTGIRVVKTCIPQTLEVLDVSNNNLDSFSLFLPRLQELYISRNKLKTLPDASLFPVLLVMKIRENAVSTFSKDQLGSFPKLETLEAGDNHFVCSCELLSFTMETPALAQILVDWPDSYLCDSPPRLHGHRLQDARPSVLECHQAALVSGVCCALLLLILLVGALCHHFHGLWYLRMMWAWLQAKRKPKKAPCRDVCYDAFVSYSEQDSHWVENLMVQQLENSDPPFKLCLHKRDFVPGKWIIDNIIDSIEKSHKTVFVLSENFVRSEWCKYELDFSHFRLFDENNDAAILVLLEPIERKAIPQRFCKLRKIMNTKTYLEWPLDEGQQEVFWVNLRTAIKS
Description: (§1) C57BL/6J mice were obtained from The Jackson Laboratory (Bar Harbor, Me.). Primary peritoneal macrophages were obtained by peritoneal lavage 4 days after intraperitoneal injection (3 ml) of sterile 3% thioglycolate broth. Washed cells were resuspended in RPMI 1640 which contained 2% FBS, 1% penicillin:streptomycin and 2 mM L-glutamine. After plating, cells were incubated overnight at 37° C. and then washed with PBS to remove non-adherent cells. Cells were exposed to peptides 30 min before stimulation with a TLR agonist.
(§2) Protein-free Escherichia coli K235 LPS was used at final concentration of 10 ng/ml to stimulate cells. S-[2,3-bis(palmitoyloxy)-(2-RS)-propyl]-N-palmitoyl-(R)-Cys-Ser-Lys4-OH (P3C) and S-[2,3-bis(palmitoyloxy)-(2-RS)-propyl]-[R]-Cys-Ser-Lys4-OH (P2C) were purchased from EMC microcollections GmbH (Tubingen, Germany) and used for cell stimulation at 500 and 50 ng/ml, respectively. Phospho-ERK1/2 and phospho-JNK1/2 rabbit Abs were obtained from Cell Signaling Technology, Inc. β-actin rabbit Ab were from SantaCruz Biotechnology, Inc.
(§3) Because of the role TRAP plays in TLR2 signaling, TIRAP TIR-derived decoy peptide effects on TLR2-induced cytokine mRNA expression were examined. Thioglycollate-elicited mouse macrophages were stimulated either by P2C, an agonist that induces signaling through TLR2/TLR6 heterodimerization, or P3C, a TLR2/TLR1 agonist, and effects of TIRAP TR-derived decoy peptides on induction of cytokine mRNA were examined. […] To confirm the inhibitory effect of TR3 and TR6 on P3C-induced signaling, IL-6 and TNF-α concentration was measured in macrophage supernatants collected 5 h after stimulation of cells with P3C. […] Concordantly, both TR3 and TR6 diminished the P3C-induced ERK phosphorylation (FIG. 3D).
(§4) C57BL/6J mice were obtained from The Jackson Laboratory (BarHarbor, Me.). Harvesting, culturing, and stimulation of peritoneal macrophages were described in previous publications (1, 18, 19). Escherichia coli K235 LPS (34) was used at the final concentration of 100 ng/ml. The 2,3-bis(palmitoyloxy)-(2-RS)-propyl-N-palmitoyl-(R)-Cys-Ser-Lys4-OH (P3C) and S[2,3-bis(palmitoyloxy)-(2-RS)-propyl]-[R]-Cys-Ser-Lys4-OH (P2C) (EMC Microcollections, Tubingen, Germany) were used at 500 and 50 ng/ml, respectively. Oligonucleotide (ODN) 1668 and low m.w. polyinosinic-polycytidylic acid [poly(I:C)] in complex with LyoVec were obtained from InvivoGen; these agonists were used at 2.5 μM and 400 ng/ml, respectively.

[2] = system: TLR4; experiment: Inhibition of TLR4 signaling in thioglycollate-elicited mouse macrophages (effective concentration, overall inhibitory activity); settings: TLR4 pathway; thioglycollate-elicited mouse macrophages
Description: as §1
TIRAP/Mal functions to facilitate MyD88 recruitment to the activated TLR4 and TLR2, presumably through a simultaneous interaction with receptor and MyD88 TIR domains. Therefore, multiple TIR:TIR interaction sites are expected in TIRAP TIR. The decoy peptide approach was used to obtain leads on the functional protein-protein interfaces within TIRAP/Mal, a TLR adapter protein. To this end, eleven TIRAP TIR-derived decoy peptides were designed to be structurally homologous to the TLR4 TIR-derived decoy peptides used previously (1), so that each peptide represents a non-fragmented patch of the TIRAP TIR surface, with the entire domain encompassed by the set of peptides. The TIRAP TIR-derived decoy peptides were synthesized in tandem with the cell-permeating sequence of Antennapedia homeodomain (21) and each peptide was tested for the ability to inhibit TLR4 and TLR2 signaling in primary mouse macrophages. Peptide sequences and the structural regions they represent are shown in reference (30).
as §4

[3] = system: TLR4; experiment: LPS-induced cytokine mRNA expression in mouse macrophages (real-time RT-PCR); settings: for LPS-induced cytokine mRNA induction: peritoneal macrophages (FIG. 14A); for LPS-induced TNF-α and IL-1β mRNA expression: 20 μM peptide 30 min, LPS 1 hour (FIG. 13A)
Description: as §1
(§5) Total cellular RNA was isolated using Tripure from Roche (San Francisco, Calif.) following manufacture's protocol. RNA was then reverse transcribed using AMV Reverse Transcriptase from Promega (Madison, Wis.) with poly-T priming as per manufacturer's directions. cDNA was then quantified by real-time PCR using Applied Biosystems Fast SYBR Green PCR Master Mix and an ABI Prism 7500HT cycler. Primers used for detection: hypoxanthine phosphoribosyltransferase (HPRT) (forward: […] (SEQ ID NO:51), reverse: […] (SEQ ID NO:52)), TNFα (forward: […] (SEQ ID NO:53), reverse: […] (SEQ ID NO:54)), IL-1β (forward: […] (SEQ ID NO:55), reverse: […] (SEQ ID NO:56)), IFNβ (forward: […] (SEQ ID NO:57), reverse: CTCGGACCACCATCCAGG (SEQ ID NO:58)) and RANTES (forward: […] (SEQ ID NO:59), reverse: […] (SEQ ID NO:60)). The primers were designed using Primer Express 2.0 (Applied Biosystems). Using HPRT as reference, the ΔCt method was used to calculate relative gene expression. One-way ANOVA was preformed, as well as Dunnett's multiple comparison post hoc test with a p≦0.01 selected as the level of significance.
Total RNA was isolated with Nucleospin RNA II kits (Macherey-Nagel, Bethlehem, Pa.), followed by DNase digestion. cDNA was synthesized from 1 μg RNA using Goscript transcriptase (Promega), and subjected to real-time PCR with gene-specific primers for HPRT, TNF-α, IL-1β, IFNβ, and RANTES on H7900 ABI system using Fast SYBR Green master mix (Applied Biosystems, Foster City, Calif.).
To evaluate peptide-inhibitory activities, we first measured LPS-induced cytokine mRNA expression. […] […] Decoy peptide TM4 is derived from the BB loop of TRAM TIR; we previously identified this peptide as an effective TLR4 inhibitor (19).

[4] = system: TLR4; experiment: LPS-induced MAPK (ERK, JNK, p38) activation in mouse macrophages (Western analysis); settings: for LPS-induced activation of ERK and JNK MAPKs: peritoneal macrophages (FIG. 14B); for LPS-induced activation of p38 and ERK MAPKs: 20 μM peptide, LPS 30 min
Description: Cellular protein extracts were isolated by addition of 240 μL per well cold lysate buffer (20 mM Tris, 50 mM NaCl, 1.5 mM MgCl2, 2 mM EDTA, 10 mM NaF, 2 Mm DTT, 1 mM Na3VO4, 1% Triton). Cells were incubated with lysis solution for 30 min on agitator at 4° C. Lysate was then collected and centrifuged at 14,000 g for 10 minutes at 4° C. After quantification using BioRad protein assay, protein samples were added to Laemmli buffer and then boiled for 10 min. Samples were then resolved by SDS-10% PAGE in Tris/glycine/SDS buffer (25 mM Tris, 250 mM glycine, 0.1% SDS), and transferred onto Immobilon P transfer membranes (Millipore, Bedford, Mass.) (100 V, 1.5 h, 4° C.). Membranes were blocked for 1 h in TBS-T (20 mM Tris-HCl, 150 mM NaCl, 0.1% Tween 20) containing 5% nonfat milk, then probed for overnight at 4° C. with the respective antibodies (Abs) (dilution 1:1000 in TBS-T with 2% BSA). After washing in TBS-T, membranes were incubated with secondary HRP-conjugated, donkey anti-rabbit IgG (1:10,000 dilution in TBS-T with 5% nonfat milk) for 1 h at room temperature. Membranes washed five times in TBS-T before development with ECL reagents (GE Healthcare) according to manufacturer's directions.
HEK293T cells were transfected with indicated plasmids using Superfect Transfection Reagent (Qiagen). Twenty-four hours posttransfection, the cells were lysed using the buffer containing 20 mM HEPES (pH 7.4), 150 mM NaCl, 10 mM NaF, 2 mM Na3VO4, 1 mM EDTA, 1 mM EGTA, 0.5% Triton X-100, 0.1 M DTT, 1 mM PMSF, and protease inhibitor mixture (Roche, Indianapolis, Ind.). Rabbit Ab against phospho-ERK, phospho-JNK, MyD88 (D80F5), STAT1-Y701, total STAT1, and GAPDH were purchased from Cell Signaling Technology (Beverly, Mass.). Rabbit anti-phospho-p38 Ab was purchased from Promega (Madison, Wis.). Goat anti-TLR4 (M−16), rabbit anti-TLR4 (H-80), anti-HA-HRP (F-7), and rabbit anti-b-actin Ab were purchased from Santa Cruz Biotechnology. Mouse anti-Flag M2 and rabbit anti-HA Ab were from Sigma-Aldrich. GFP Ab (A1122) was from Invitrogen. Protein was quantified using Bio-Rad protein quantification kit. Equal amount of protein was loaded and analyzed by 10% SDS-PAGE and immunoblotting. The cell extracts containing equal amount of protein were incubated with 1 μg Ab for 2 h, followed by 4-h incubation with 25 μl protein G agarose beads (Roche); the beads were then washed four times with lysis buffer, boiled in […] sample loading buffer, and analyzed by immunoblotting.
We next examined whether TRAM peptides inhibit the TLR4-mediated p38, ERK, and JNK MAPK activation. Murine macrophages pretreated with peptides for 30 min were challenged with LPS. Cell lysates were collected 30 min post-stimulation and analyzed for MAPK phosphorylation by Western analysis. Consistent with peptide effects on steady-state mRNA, both TM4 and TM6 inhibited activation of all three MAPKs (FIG. 5C). The inhibition of MAPKs by TM4 or TM6 was long lasting; it persisted for at least 1 h after LPS stimulation (data not shown). To characterize further the effects of TRAM peptides on MAPKs, murine macrophages were treated with TRAM peptides, but not challenged by LPS.

[5] = biological target: T2, TLR2/TLR1 heterodimer (Mus musculus, UniProt Q9QUN7); experiment: P3C-induced cytokine mRNA expression in mouse macrophages; settings: peptide 30 min; P3C 500 ng/ml 1 hour (FIG. 15A)
T2 construct: endogenous in cells; host or cells: thioglycollate-elicited mouse peritoneal macrophages
T2 sequence (Q9QUN7 25-784, one chain of several): as the sequence (Q9QUN7 25-784) above
Text: as §5, §2, §3, §4

[6] = biological target: T3, TLR2/TLR6 heterodimer (Mus musculus, UniProt Q9QUN7); experiment: P2C-induced cytokine mRNA expression in mouse macrophages; settings: peptide 30 min; P2C 50 ng/ml 1 hour (FIG. 15B)
T3 construct: endogenous in cells; host or cells: thioglycollate-elicited mouse peritoneal macrophages
T3 sequence (Q9QUN7 25-784, one chain of several): as the sequence (Q9QUN7 25-784) above
Text: as §5, §2, §3, §4

Row | Compound | Effective conc. [1] [µM] | Effective conc. [2] [µM] | LPS-induced cytokine mRNA induction [3] | LPS-induced activation of ERK and JNK MAPKs [4] | other results
1 | RQIKIWFQNRRMKWKKLHKRDFVPGKWIID [Peptide 2BB] | 40 | – | – | – | IL-1β expression induced by TLR2 agonists [1]: inhibits
2 | RQIKIWFQNRRMKWKKHIFWRRLKNALLD [4R11/4αE] | – | 20 | potently inhibit | potently inhibit | –
3 | RQIKIWFQNRRMKWKKEQTDYRLKLC [Peptide M3] | – | 20 | – | – | LPS-induced TNF-α and IL-1β mRNA expression [3]: inhibit; LPS-induced activation of p38 and ERK MAPKs [4]: inhibit
4 | RQIKIWFQNRRMKWKKEEGVPRFHLC [Peptide 4R3] | – | 20 | potently inhibit | potently inhibit | –
5 | RQIKIWFQNRRMKWKKSDRDVLPGTCVWS [Peptide M4] | – | 20 | – | – | LPS-induced TNF-α and IL-1β mRNA expression [3]: inhibit; LPS-induced activation of p38 and ERK MAPKs [4]: inhibit
6 | RQIKIWFQNRRMKWKKPQRFCKLRKIMNT [Peptide 2R9] | 40 | – | – | – | Cytokine mRNA expression induced by P3C [5]: inhibit; Cytokine mRNA expression induced by P2C [6]: inhibit; TLR2-induced ERK activation ([1]; FIG. 16C): strongly inhibits
7 | RQIKIWFQNRRMKWKKAGCKKYSRGESIYD [Peptide 4R1] | – | 20 | potently inhibit | potently inhibit | –
8 | CC[C@H](C)[C@H](NC(=O)[C@H](CCCCN)NC(=O)[C@@H](NC(=O)[C@H](CCC(N)=O)NC(=O)[C@@H](N)CCCNC(=N)N)[C@@H](C)CC)C(=O)N[C@@H](Cc1c[nH]c2ccccc12)C(=O)N[C@@H](Cc1ccccc1)C(=O)N[C@@H](CCC(N)=O)C(=O)N[C@@H](CC(N)=O)C(=O)N[C@@H](CCCNC(=N)N)C(=O)N[C@@H](CCCNC(=N)N)C(=O)N[C@@H](CCSC)C(=O)N[C@@H](CCCCN)C(=O)N[C@@H](Cc1c[nH]c2ccccc12)C(=O)N[C@@H](CCCCN)C(=O)N[C@@H](CCCCN)C(=O)N[C@@H](CCCNC(=N)N)C(=O)N[C@@H](CCCCN)C(=O)N1CCC[C@H]1C(=O)N[C@@H](CCCCN)C(=O)N[C@@H](CCCCN)C(=O)N[C@@H](C)C(=O)N1CCC[C@H]1C(=O)N[C@@H](CS)C(=O)N[C@@H](CCCNC(=N)N)C(=O)N[C@@H](CC(=O)O)C(=O)N[C@H](C(=O)N[C@@H](CS)C(=O)N[C@@H](Cc1ccc(O)cc1)C(=O)N[C@@H](CC(=O)O)C(=O)O)C(C)C [Peptide 2R1] (H-RQIKIWFQNRRMKWKKRKPKKAPCRDVCYD-OH; N-terminus and C-terminus assumed) | 40 | – | – | – | Cytokine mRNA expression induced by P3C [5]: inhibit; Cytokine mRNA expression induced by P2C [6]: inhibit
9 | RQIKIWFQNRRMKWKKIASELIEKRCRRM [Peptide M5] | – | 20 | – | – | LPS-induced TNF-α and IL-1β mRNA expression [3]: inhibit; LPS-induced activation of p38 and ERK MAPKs [4]: inhibit
10 | RQIKIWFQNRRMKWKKEPIERKAIPQRFCK [Peptide 2DD-αD] | 40 | – | – | – | IL-1β expression induced by TLR2 agonists [1]: potently inhibits
11 | RQIKIWFQNRRMKWKKENSDPPFKLC [Peptide 2R3] | 40 | – | – | – | Cytokine mRNA expression induced by P3C [5]: inhibit
12 | RQIKIWFQNRRMKWKKLRQQVELYRLLSR [Peptide 4R9] | – | 20 | potently inhibit | potently inhibit | –

From patent publication US20130203649A1, “INHIBITORS OF TLR SIGNALING BY TARGETING TIR DOMAIN INTERFACES” (UNIVERSITY OF MARYLAND, BALTIMORE, priority 2012, published 2013)
